From paper PMC8190356, “The Effect of the EGFR - Targeting Compound 3-[(4-Phenylpyrimidin-2-yl) Amino] Benzene-1-Sulfonamide (13f) against Cholangiocarcinoma Cell Lines” (Asian Pacific Journal of Cancer Prevention : APJCP, 2021)

Molecular target: T1, tyrosine kinase of EGFR (TK-EGFR) (Homo sapiens, UniProt P00533)
T1 construct: tyrosine kinase of EGFR (TK-EGFR), recombinant protein from E. coli
Experiment: ADP-Glo kinase assay with recombinant TK-EGFR, […] ATP
Assay type: biochemical

T1 sequence (P00533 25-1210): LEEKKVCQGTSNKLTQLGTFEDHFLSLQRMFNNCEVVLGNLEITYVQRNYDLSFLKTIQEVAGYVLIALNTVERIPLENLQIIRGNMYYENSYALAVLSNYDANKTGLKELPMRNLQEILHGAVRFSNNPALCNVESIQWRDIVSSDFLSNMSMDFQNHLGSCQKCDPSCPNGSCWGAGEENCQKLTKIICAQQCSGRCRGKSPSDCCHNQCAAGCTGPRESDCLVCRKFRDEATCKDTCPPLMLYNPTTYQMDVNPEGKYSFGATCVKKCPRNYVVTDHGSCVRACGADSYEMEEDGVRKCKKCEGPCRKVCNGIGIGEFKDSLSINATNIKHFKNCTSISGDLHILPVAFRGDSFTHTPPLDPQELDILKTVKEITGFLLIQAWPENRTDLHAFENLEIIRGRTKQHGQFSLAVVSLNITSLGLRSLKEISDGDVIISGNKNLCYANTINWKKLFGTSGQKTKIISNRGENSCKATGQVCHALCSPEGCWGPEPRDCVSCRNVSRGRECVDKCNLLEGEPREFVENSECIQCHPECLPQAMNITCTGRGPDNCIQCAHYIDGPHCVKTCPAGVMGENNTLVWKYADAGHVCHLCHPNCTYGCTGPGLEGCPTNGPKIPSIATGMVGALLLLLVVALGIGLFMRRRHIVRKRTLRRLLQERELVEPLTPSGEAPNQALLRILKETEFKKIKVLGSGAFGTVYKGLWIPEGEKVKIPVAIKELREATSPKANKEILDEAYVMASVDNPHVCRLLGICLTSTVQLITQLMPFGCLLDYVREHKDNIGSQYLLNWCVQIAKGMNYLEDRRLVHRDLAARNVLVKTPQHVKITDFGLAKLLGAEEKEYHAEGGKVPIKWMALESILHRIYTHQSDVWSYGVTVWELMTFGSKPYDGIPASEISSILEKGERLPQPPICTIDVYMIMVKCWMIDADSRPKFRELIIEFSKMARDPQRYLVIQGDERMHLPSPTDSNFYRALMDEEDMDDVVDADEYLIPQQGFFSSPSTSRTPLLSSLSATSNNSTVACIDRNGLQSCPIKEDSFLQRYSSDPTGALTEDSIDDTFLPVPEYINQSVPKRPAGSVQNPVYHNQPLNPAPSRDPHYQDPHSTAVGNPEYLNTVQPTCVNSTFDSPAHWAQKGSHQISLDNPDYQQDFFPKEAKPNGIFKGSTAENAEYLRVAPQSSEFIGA

Question: With `NS(=O)(=O)c1cccc(Nc2nccc(-c3ccccc3)n2)c1` [13f, 3-[(4-phenylpyrimidin-2-yl)amino] benzene-1-sulfonamide] as the compound, how does the IC50 read?
Answer: Its IC50 is 22.7 nM.
